From ChEMBL document CHEMBL1201862, “PubChem BioAssay data set” (2004)
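Tested at 5 concentrations; 48 h exposure; 96-well plates; endpoints linearly interpolated, else capped at highest concentration. GI50 = concentration required for 50% inhibition of growth.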 The source made the active and inactive calls. Rule as the data show it: active = GI50 up to about 1.1 µM and inactive = higher.

Experiments:
Experiment in all cases: inhibition of tumour cell growth, NCI panel, 48 h
786-0 = tested on: 786-0
ACHN = tested on: ACHN
BT-549 = tested on: BT-549
DU-145 = tested on: DU-145
HOP-62 = tested on: HOP-62
HOP-92 = tested on: HOP-92
Hs-578T = tested on: Hs-578T
LOX IMVI = tested on: LOX IMVI
M19-MEL = tested on: M19-MEL
MDA-MB-231 = tested on: MDA-MB-231
MDA-MB-435 = tested on: MDA-MB-435
NCI-H226 = tested on: NCI-H226
NCI-H522 = tested on: NCI-H522
OVCAR-8 = tested on: OVCAR-8
SK-MEL-28 = tested on: SK-MEL-28
SK-MEL-5 = tested on: SK-MEL-5
SR = tested on: SR
SW-620 = tested on: SW-620
TK-10 = tested on: TK-10
MDA-N = tested on: MDA-N

Measured: GI50

NCCSCC(N)C(=O)O (configuration not stated)
inactive: 786-0 83.4 µM | ACHN 65.9 µM | BT-549 > 100 µM | DU-145 > 90.6 µM | HOP-62 > 497 µM | HOP-92 > 497 µM | Hs-578T > 95.1 µM | LOX IMVI > 497 µM | M19-MEL > 497 µM | MDA-MB-231 > 100 µM | MDA-MB-435 51.2 µM | NCI-H226 > 497 µM | NCI-H522 > 63 µM | OVCAR-8 > 497 µM | SK-MEL-28 > 497 µM | SK-MEL-5 > 63.7 µM | SR > 497 µM | SW-620 46.8 µM | TK-10 > 497 µM

O=C(NC(=O)c1c(Cl)nc2sccn12)Nc1ccc(Cl)cc1
inactive: 786-0 35.4 µM | ACHN 77.4 µM | BT-549 28.4 µM | DU-145 > 83.4 µM | HOP-62 19.5 µM | HOP-92 25.1 µM | Hs-578T 8.81 µM | LOX IMVI 63.4 µM | M19-MEL > 100 µM | MDA-MB-231 25.5 µM | MDA-MB-435 > 100 µM | MDA-N > 100 µM | NCI-H226 45.2 µM | NCI-H522 61 µM | OVCAR-8 52.6 µM | SK-MEL-28 > 100 µM | SK-MEL-5 > 88.3 µM | SR > 100 µM | SW-620 > 100 µM | TK-10 35.6 µM

C=C1C(=O)OC2(C)C3CCC(C3)C12 (configuration not stated)
inactive: 786-0 47.9 µM | ACHN > 100 µM | HOP-62 > 100 µM | HOP-92 29 µM | LOX IMVI 80.2 µM | M19-MEL 44.8 µM | NCI-H226 > 100 µM | NCI-H522 21.7 µM | OVCAR-8 36 µM | SK-MEL-28 > 100 µM | SK-MEL-5 87.1 µM | SR 29.6 µM | SW-620 47.2 µM | TK-10 36.3 µM

O=S(=O)(O)SC/C=C\CSS(=O)(=O)O
inactive: 786-0 > 100 µM | ACHN > 100 µM | HOP-62 > 100 µM | HOP-92 > 100 µM | LOX IMVI 29.4 µM | M19-MEL > 100 µM | NCI-H226 > 100 µM | NCI-H522 > 100 µM | OVCAR-8 > 100 µM | SK-MEL-28 > 100 µM | SK-MEL-5 > 100 µM | SR > 100 µM | SW-620 > 100 µM | TK-10 > 100 µM

CCC1(O)C(=O)OCc2c1cc1n(c2=O)Cc2cc3c(N)cccc3nc2-1 (configuration not stated) [RS-9-Aminocamptothecin]
inactive: Hs-578T 3.65 µM | MDA-MB-231 2.1 µM | TK-10 3.02 µM
active: 786-0 0.0108 µM | ACHN < 0.01 µM | BT-549 0.0668 µM | DU-145 < 0.011 µM | HOP-62 < 0.0119 µM | HOP-92 0.0349 µM | LOX IMVI < 0.01 µM | M19-MEL 0.0588 µM | MDA-MB-435 0.0607 µM | MDA-N 0.182 µM | NCI-H226 < 0.01 µM | NCI-H522 0.0196 µM | OVCAR-8 0.027 µM | SK-MEL-28 0.188 µM | SK-MEL-5 0.0255 µM | SR < 0.01 µM | SW-620 0.0281 µM
